Assay results from patent US8020343B2, “Enhanced shelf life and on seed stabilization of liquid bacterium inoculants” (Becker Underwood Inc., priority 2004, dated 2011).

How the values were obtained:
[1] = tested on: Rhizobium leguminosarum; experiment: Sugar/sugar alcohol study: bacteria counts on pea seeds; type: cell-based; settings: 15° C., sorbitol vs sucrose vs trehalose
Protocol: Partially desiccated inoculant products were prepared by first growing Rhizobium leguminosarum in a Rhizobium leguminosarum bv. viceae culture medium. Two different culture mediums were used, 1×R1 and 1.5×R1, which are pea and lentil fermentation medium. The 1.5×R1 has 50% more media components than 1×R1. After 3 days culture growth, a sugar or a sugar alcohol was aseptically added to the culture. The amount of sugar or sugar alcohol added to the culture is shown in final concentration (weight/volume) in Table 9 below. The culture was then allowed a 2 day conditioning phase during which the culture continued to grow thereby creating the partially desiccated inoculant product. The partially desiccated inoculant product was then applied to pea seeds at a rate of 3.1 L inoculant product/1136 kg seed. The seeds were then mixed in a bag by shaking to evenly distribute the inoculant product on the seeds. The seeds were then stored at 15° C.
The bacteria counts were performed in a similar manner as the previous examples. That is, 50 seeds were put in 100 ml of phosphate buffer in a dilution bottle. The bottle was shaken for 5 minutes. 10 fold serial dilutions were made and 0.1 ml of proper dilution was spread onto nutrient medium plates. The viable bacteria cells on seed were calculated based on the colony numbers on the plates.

[2] = tested on: B. japonicum strain 532C; experiment: Sorbitol versus trehalose: on-seed rhizobial viability on soybean seed; type: cell-based; settings: trehalose 30% w/v vs sorbitol 20% w/v; seeds at 18-20° C., time zero and 7 days, FIG. 13
Protocol: An experiment was run to determine whether sorbitol or trehalose is better suited for application to soybean seeds with B japonicum. The following steps were performed: • 1. B. japonicum strain 532C was grown for 5 days in 1.5×Bj2 (a soybean fermentation medium) at 30° C. and 165 rpm. • 2. Either sorbitol (20% w/v) or trehalose (30% w/v) was added to the culture, and the cultures were maintained for 5 days at 30° C., 165 rpm. • 3. 2.7 ml/kg of either sorbitol or trehalose amended culture was applied to soybean seed. Seeds were evenly coated. • 4. Seeds were stored at 18-20° C. • 5. On-seed rhizobial viability was monitored at time zero and after 7 days

For `OC[C@@H](O)[C@@H](O)[C@H](O)[C@@H](O)CO` [sorbitol], the “extension of on-seed shelf life of Rhizobium leguminosarum, ranking of sugars/sugar alcohols tested” value [1] was “top performing”.
For `OC[C@H]1O[C@H](O[C@H]2O[C@H](CO)[C@@H](O)[C@H](O)[C@H]2O)[C@H](O)[C@@H](O)[C@@H]1O` [trehalose], the “suitability for application to B japonicum on soybean seeds (on-seed rhizobial viability)” value [2] was “better suited than sorbitol”.
